Experimental data: patent US9278922B2 (ABBVIE INC., priority 2009, dated 2016)

system: HCV 1b-Con-1 replicon; assay: HCV 1b-Con-1 replicon assay (luciferase reporter gene, HuH-7 cells); type: cell-based, Hepatitis C virus (HCV) genotype 1b-Con1; settings: Hepatitis C virus, Huh-7, luciferase reporter gene activity in the replicon, in the presence of 5% FBS

Question: With COC(=O)N[C@H](C(=O)N1CCC[C@H]1C(=O)Nc1ccc(CN(Cc2ccc(NC(=O)[C@@H]3CCCN3C(=O)[C@@H](NC(=O)OC)[C@H]3CCOC3)cc2)c2ccc(F)cc2)cc1)[C@H]1CCOC1 [Example 86, dimethyl {[(4-fluorophenyl)imino]bis[methanediylbenzene-4,1-diylcarbamoyl(2 S)pyrrolidine-2,1-diyl{(1S)-2-oxo-1-[(3R)-tetrahydrofuran-3-yl]ethane-2,1-diyl}]}biscarbamate] as the compound, how does the EC50 read?
Answer: Its EC50 is < 1 nM.

Question: How did the EC50 turn out when CC(C)[C@@H](C(=O)N1CCC[C@H]1C(=O)Nc1ccc(CN(Cc2ccc(NC(=O)[C@@H]3CCCN3C(=O)[C@H](C(C)C)N3CCCC3=O)cc2)c2ccccc2)cc1)N1CCCC1=O [Example 42, (2S,2′S)-N,N′-[(phenylimino)bis(methanediylbenzene-4,1-diyl)]bis {1-[(2S)-3-methyl-2-(2-oxopyrrolidin-1-yl)butanoyl]pyrrolidine-2-carboxamide}] was run?
Answer: Its EC50 is < 1 nM.

Question: For COC(=O)N[C@H](C(=O)N1CCC[C@H]1c1nc2cc(CN(Cc3ccc4[nH]c([C@@H]5CCCN5C(=O)[C@@H](NC(=O)OC)C(C)C)nc4c3)c3ccccc3)ccc2[nH]1)C(C)C [Example 17, Dimethyl (2S,2′S)-1,1′-((2S,2′S)-2,2′-(5,5′-(phenylazanediyl)bis(methylene)bis(1H-benzo[d]imidazole-5,2-diyl))bis(pyrrolidine-2,1-diyl))bis(3-methyl-1-oxobutane-2,1-diyl)dicarbamate], which EC50 is on record?
Answer: Its EC50 is < 1 nM.

Question: With COC(=O)N[C@@H](CCc1ccccc1)C(=O)N1CCC[C@H]1C(=O)Nc1ccc(CN(Cc2ccc(NC(=O)[C@@H]3CCCN3C(=O)[C@H](CCc3ccccc3)NC(=O)OC)cc2)c2ccccc2)cc1 [Example 91, dimethyl[(phenylimino)bis{methanediylbenzene-4,1-diylcarbamoyl(2S)pyrrolidine-2,1-diyl[(2S)-1-oxo-4-phenylbutane-1,2-diyl]}]biscarbamate] as the compound, how does the EC50 read?
Answer: Its EC50 is 1 to 10 nM.

Question: Which EC50 does the source give for O=C(Nc1ccc(CN(Cc2ccc(NC(=O)[C@@H]3CCCN3C(=O)C(c3ccccc3)N3CC[C@@H](F)C3)cc2)c2ccc(F)cc2)cc1)[C@@H]1CCCN1C(=O)C(c1ccccc1)N1CC[C@@H](F)C1 (stereo partly drawn) [Example 116, (2S,2′S)-N,N′-{[(4-fluorophenyl)imino]bis(methanediylbenzene-4,1-diyl)}bis(1-{[(3R)-3-fluoropyrrolidin-1-yl](phenyl)acetyl}pyrrolidine-2-carboxamide)] here?
Answer: Its EC50 is < 1 nM.

Question: For CC(=O)N[C@H](C(=O)N1CCC[C@H]1C(=O)Nc1ccc(CN(Cc2ccc(NC(=O)[C@@H]3CCCN3C(=O)[C@@H](NC(C)=O)C(C)(C)C)cc2)c2ccccc2)cc1)C(C)(C)C [Example 79, (2S,2′S)-N,N′-[(phenylimino)bis(methanediylbenzene-4,1-diyl)]bis {1-[(2S)-2-(acetylamino)-3,3-dimethylbutanoyl]pyrrolidine-2-carboxamide}], which EC50 is on record?
Answer: Its EC50 is 10 to 100 nM.

Question: O=C(Nc1ccc(CN(Cc2ccc(NC(=O)[C@@H]3C[C@@H]4CCC[C@@H]4N3C(=O)[C@@H](c3ccccc3)N3CCCCC3)cc2)c2ccc(F)cc2)cc1)[C@@H]1C[C@@H]2CCC[C@@H]2N1C(=O)[C@@H](c1ccccc1)N1CCCCC1 [Example 124, (2S,3aS,6aS,2′S,3a′S,6a′S)-N,N′-{[(4-fluorophenyl)imino]bis(methanediylbenzene-4,1-diyl)}bis{1-[(2R)-2-phenyl-2-piperidin-1-ylacetyl]octahydrocyclopenta[b]pyrrole-2-carboxamide}] was tested. Which EC50 did it give?
Answer: The EC50 was < 1 nM.

Question: For COC(=O)N[C@H](C)C(=O)N1CCC[C@H]1C(=O)Nc1ccc(CN(Cc2ccc(NC(=O)[C@@H]3CCCN3C(=O)[C@@H](C)NC(=O)OC)cc2)c2ccc(F)cc2)cc1 [Example 16], which EC50 is on record?
Answer: The EC50 was 10 to 100 nM.

Question: COC(=O)N[C@H](C(=O)N1CC[C@H](O)[C@H]1C(=O)Nc1ccc(CN(Cc2ccc(NC(=O)[C@@H]3[C@@H](O)CCN3C(=O)[C@@H](NC(=O)OC)C(C)(C)C)cc2)c2ccc(F)cc2)cc1)C(C)(C)C [Example 141] was tested. Which EC50 did it give?
Answer: The EC50 was 10 to 100 nM.
